According to ChEMBL document CHEMBL3638598, “Pyrazolo pyrimidine derivatives” (2014):

What follows are molecules tested against G-prodeshotein coupled receptor 4 (Homo sapiens, UniProt P46093) (assay: Radio Ligand Binding Assay: Serial dilutions of compounds (stock in 10 mM DMSO) are prepared by first diluting the compounds in DMSO followed by a 1:50 dilution into assay buffer (10 mM HEPES, pH 8.0, 100 mM NaCl, 5 mM MgCl2, 1 mM CaCl2, 0.5% fatty acid-free BSA, 0.05% Tween-20). […] The desired amount of membranes (20 μg/well) is diluted with assay buffer. […] 100 μL of the membrane-suspension is added and the plate stirred for 60 minutes.).
G-prodeshotein coupled receptor 4, sequence (P46093 whole entry): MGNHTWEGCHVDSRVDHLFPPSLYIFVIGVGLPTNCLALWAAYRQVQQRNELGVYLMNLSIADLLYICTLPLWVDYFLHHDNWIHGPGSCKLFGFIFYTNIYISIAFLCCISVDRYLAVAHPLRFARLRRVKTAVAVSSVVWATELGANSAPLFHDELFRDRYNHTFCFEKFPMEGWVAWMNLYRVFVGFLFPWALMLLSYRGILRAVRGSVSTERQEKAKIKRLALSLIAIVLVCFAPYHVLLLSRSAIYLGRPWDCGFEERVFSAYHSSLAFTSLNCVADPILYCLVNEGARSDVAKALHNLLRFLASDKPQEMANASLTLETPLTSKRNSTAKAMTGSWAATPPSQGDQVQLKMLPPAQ

| IC50 | SMILES |
| --- | --- |
| 35 nM | CCc1nn2c(C)cc(C)nc2c1Cc1ccc(OC[C@H]2CC[C@@H](N)CC2)cc1 |
| 54 nM | CCc1nn2c(C)cc(C)nc2c1Cc1ccc(OC[C@H]2CC[C@@H](NC(=O)[C@H]3NCC[C@H]3O)CC2)cc1 |

| SMILES | IC50 |
| --- | --- |
| CCc1nn2c(C)cc(C)nc2c1Cc1ccc(OCC2CCNCC2)cc1 | 22 nM |
